Source: patent publication US20260327196A1, “AMINO ACID DERIVATIVES FOR DETECTING NEUROLOGICAL DISORDERS” (Amydis, Inc., priority 2023, published 2026)
Where a name gives a salt, the structure may show the parent alone.

Columns and labels:
[1] = biological target: Aβ (Homo sapiens, UniProt P05067); assay: Fluorescence emission / binding of compound 1 to aggregated amyloidogenic protein (Table A); conditions: 4 μM compound 1, 5 μM aggregated protein, 1×PBS pH 7.4
Procedure: (§1) An in vitro study was carried out to characterize the fluorescent properties of compound 1 and its binding to amyloidogenic protein aggregates (e.g., Aβ, aSyn, TTR, and TDP43).
(§2) Compound 1 (4 μM) was prepared with or without 5 μM aggregated amyloidogenic protein in 1× phosphate-buffered saline (PBS). The emission spectra of compound 1 for each sample were collected according to the following protocol and the corresponding fold increases (compound 1+amyloid aggregate/compound 1) were calculated.
(§3) The following protocol was adopted in this study: • 1. Turn on the fluorimeter and let warm up for-30 minutes • 2. Allow aggregated amyloid protein (100 μM) solution to warm to room temperature • 3. Allow the compound 1 to warm to room temperature • 4. Prepare 1×PBS, pH 7.4. • 5. Prepare blank solution of DMSO/PBS (2.42 μl DMSO in 147.6 μl PBS, pH 7.4) • 6. Prepare a 250 μM solution of compound 1 in DMSO. Keep samples in the dark at room temperature. • 7. Prepare a 4 μM compound 1 solution with and without 5 μM aggregated amyloid protein • 8. Measure the emission scan of compound 1+aggregated amyloid protein solution using 1) 450 nm and 2) 488 nm as the excitation wavelength. Record the emission sweep from 450 nm-750 nm. Determine Amax from these spectra • 9. Repeat step 8 for 4 μM compound 1 without amyloid protein • 10. Export the data and plot relative fluorescence intensity (RFI) versus wavelength for emission spectra

[2] = biological target: TDP43 (Homo sapiens, UniProt Q13148); assay: as above; conditions: 4 μM compound 1, 5 μM aggregated protein, 1×PBS pH 7.4
Procedure: as §1, §2, §3

[3] = biological target: TTR (Homo sapiens, UniProt P02766); assay: as above; conditions: 4 μM compound 1, 5 μM aggregated protein, 1×PBS pH 7.4
Procedure: as §1, §2, §3

[4] = biological target: aSyn (Homo sapiens, UniProt P37840); assay: as above; conditions: 4 μM compound 1, 5 μM aggregated protein, 1×PBS pH 7.4
Procedure: as §1, §2, §3

[5] = tested on: amyloidogenic protein aggregates (e.g., Aβ, aSyn, TTR, and TDP43); assay: In vitro characterization: binding to amyloidogenic protein aggregates; conditions: 4 μM compound 1, 5 μM aggregated protein; excitation 450 and 488 nm
Procedure: as §1, §2
as §3, with “Repeat step 8 for 4 μM compound 1 without amyloid protein • 10.” left out

[6] = tested on: aggregates in ALS ex vivo retina cadaver tissue; assay: Ex vivo human cadaver imaging study, flat mounted ALS retinas stained with compound 1; conditions: 60 μM compound 1, 30 minutes at room temperature, confocal microscope
Procedure: An ex vivo human cadaver imaging study was carried out using compound 1. Flat mounted retinas extracted from ALS (amyotrophic lateral sclerosis) human cadavers were stained with compound 1 (60 μM) and images were collected.
The following staining protocol was adopted in this study:
• (i) Fix tissue in room temperature 4% PFA for 20 minutes, wash, permeabilize, and block (5% goat serum in PBST for 1 hour) • (ii) Incubate with 60 μM compound 1 in 1×PBS for 30 minutes at room temperature • (iii) Wash with PBS (3 times for 5 minutes) • (iv) Mount tissue using antifade Prolong Glass mounting media. • (v) Image with confocal microscope • (vi) Add lambda scanning imaging protocol to determine the emission peak.

[7] = tested on: amyloid-like deposits in the retina; assay: In vivo NHP imaging study, fundus autofluorescence (FAF); parameters: species or system non-human primates (monkeys); conditions: 5.13 mg/kg IV bolus
Procedure: An in vivo imaging study was carried out in non-human primates (NHP).
Compound 1 was administered to ketamine xylazine-anesthetized monkeys as a single bolus intravenous dose according to Table B. In-vivo fundus autofluorescence (FAF) images were collected prior to injection and at 2-, 5-, 15-, and 30-minutes post injection.
The compound 1 solution for injection (7 mg/mL compound 1 in 13 mM sodium bicarbonate buffered at pH 4.2) was prepared according to the following steps: • 1. Add 3 g sodium bicarbonate to 100 mL water (0.03 g/ml) • 2. Weigh out 4 g of PEG-400 (d. 1.13 g/mL) into an amber, or light isolated, 20 mL storage container containing a stir bar • 3. Add 200 mg of compound 1-HCl to the PEG-400 • 4. Add 20 mL water and stir until clear (~10 min) • 5. Add dropwise 0.6 ml of 0.03 g/ml sodium bicarbonate solution and stir 10 min (PH ~3.8) • 6. Add dropwise another 0.2 ml of the sodium bicarbonate solution and stir 10 min to adjust pH to 4.2 to provide a clear red solution • 7. Filter through 1 inch 0.22 μm diameter syringe filter to give a red clear solution into a presterilized sealed 20 mL amber glass vial • 8. Test the pH to confirm ~4.2 • 9. Transfer the remaining formulation into a 5 mL presterilized amber glass vial and place into a −20° C. freezer for analytical testing. The vial can be stored for up to 1 hour prior to use. • 10. Inject with a sterile syringe attached to a 0.22-micron PVDF membrane filter and needle. Use within 1 hour.

[8] = tested on: Hyperphosphorylated three repeat tau protein; assay: In vivo detection in TBI mouse model, fluorescent imaging of retinas; conditions: intravenous administration, removed retinas, fluorescence microscope; wild type mice of comparable age: no immunostaining
Procedure: Model mice having a target protein, for example, an amyloid beta protein, or a phosphorylated tau protein, or an accumulated mass thereof, are administered compound 1, 2, or 3 intravenously. Retinas of the mice are removed and are mounted on slides. The retinas are washed with PBS 2 times for 5 minutes. A solution of 98% formic acid is added-5 minutes for antigen retrieval. The sampled are washed with distilled water-2 times for 5 minutes. The samples are equilibrated in 1×PBS for 15 minutes, then blocked with 10% goat/donkey serum in 1×PBST (depending on antibodies) for 1 hour. Samples are covered in foil, and washed with 1×PBS 3 times for 5 minutes each. Samples are stained with DAPI (300 nM or 100 ng/ml) in dark for 10 minutes, then tissues are washed 3×10 minutes with PBS. Antifade DAKO mounting medium is added, and coverslip and kept under foil until imaging.
Fluorescent imaging study of the samples is conducted on a Leica DMI 4000B microscope (Leica, Germany) equipped with a TCS SPE camera and Leica 10, 20 and 40× objectives. The following lasers are used to visualize fluorescent probes pertaining to DAPI (blue, nuclear stain), compound 1, 2, or 3 (green) and hyperphosphorylated tau (red): 408, 488 and 568 nm. Z-stacked images are taken at 40× at 0.5 μm increments to visualize the entire thickness of the tissue.

[9] = FAF images at 2, 5, 15 and 30 minutes post injection

TDP43, sequence (Q13148 whole entry): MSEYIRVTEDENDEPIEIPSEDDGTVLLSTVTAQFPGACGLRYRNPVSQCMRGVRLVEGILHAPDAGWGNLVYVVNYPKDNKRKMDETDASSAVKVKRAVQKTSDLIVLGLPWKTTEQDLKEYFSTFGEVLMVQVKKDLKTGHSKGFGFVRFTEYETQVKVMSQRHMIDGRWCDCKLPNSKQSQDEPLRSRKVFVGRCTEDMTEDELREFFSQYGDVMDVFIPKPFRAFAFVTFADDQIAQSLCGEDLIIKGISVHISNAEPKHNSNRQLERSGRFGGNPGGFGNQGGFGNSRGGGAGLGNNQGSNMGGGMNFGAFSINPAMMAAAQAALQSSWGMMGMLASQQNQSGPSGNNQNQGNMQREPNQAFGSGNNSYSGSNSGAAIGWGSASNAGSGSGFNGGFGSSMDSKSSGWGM
Aβ, sequence (P05067 672-713 limits assumed): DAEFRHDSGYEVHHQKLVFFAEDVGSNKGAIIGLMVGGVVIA

N#C/C(=C\c1ccc2cc(N3CCCCC3)ccc2c1)C(=O)NCCOCCOCCOC(=O)CN [Compound 1, (E)-2-(2-(2-(2-cyano-3-(6-(piperidin-1-yl)naphthalen-2-yl)acrylamido)ethoxy)ethoxy)ethyl glycinate hydrochloride salt]
Fold (fold increase, compound 1+amyloid aggregate/compound 1) ([1]; excitation 450 nm): 25.3 fold
λmax ([1]; excitation 450 nm): 550 nm
Fold (fold increase, compound 1+amyloid aggregate/compound 1) ([1]; excitation 488 nm): 17.9 fold
λmax ([1]; excitation 488 nm): 555 nm
Fold (fold increase, compound 1+amyloid aggregate/compound 1) ([2]; excitation 450 nm): 6.1 fold
λmax ([2]; excitation 450 nm): 544 nm
Fold (fold increase, compound 1+amyloid aggregate/compound 1) ([2]; excitation 488 nm): 4.70 fold
λmax ([2]; excitation 488 nm): 529 nm
Fold (fold increase, compound 1+amyloid aggregate/compound 1) ([3]; excitation 450 nm): 11.5 fold
λmax ([3]; excitation 450 nm): 543 nm
Fold (fold increase, compound 1+amyloid aggregate/compound 1) ([3]; excitation 488 nm): 5.9 fold
λmax ([3]; excitation 488 nm): 549 nm
Fold (fold increase, compound 1+amyloid aggregate/compound 1) ([4]; excitation 450 nm): 174.1 fold
λmax ([4]; excitation 450 nm): 530 nm
Fold (fold increase, compound 1+amyloid aggregate/compound 1) ([4]; excitation 488 nm): 110.8 fold
λmax ([4]; excitation 488 nm): 538 nm
binding to the aggregated amyloidogenic proteins in vitro [5]: successfully bound to the aggregated amyloidogenic proteins in vitro
labeling of aggregates in ALS retina [6]: labeled aggregates in ALS ex vivo retina cadaver tissue
hyperfluorescence in vasculature and retinal tissue following injection [7, 9]: hyperfluorescence was observed within minutes in the vasculature following injection and subsequently in the retinal tissue
labeling of amyloid-like deposits in the retina [7, 9]: labeled amyloid-like deposits in the retina
clearance of signal from the vascular system ([7]; FAF images up to 30 minutes post injection): signal cleared quickly from the vascular system
detection of hyperphosphorylated three repeat tau in the retina (fluorescent signal) [8]: Hyperphosphorylated three repeat tau protein is detected in the retina, producing a detectable fluorescent signal

C[C@H](N)C(=O)OCCOCCOCCNC(=O)/C(C#N)=C/c1ccc2cc(N3CCCCC3)ccc2c1 [Compound 3, (E)-2-(2-(2-(2-cyano-3-(6-(piperidin-1-yl)naphthalen-2-yl)acrylamido)ethoxy)ethoxy)ethyl L-alaninate hydrochloride salt]
detection of hyperphosphorylated three repeat tau in the retina (fluorescent signal) [8]: Hyperphosphorylated three repeat tau protein is detected in the retina, producing a detectable fluorescent signal

CC(C)(C)OC(=O)NCC(=O)OCCOCCOCCNC(=O)/C(C#N)=C/c1ccc2cc(N3CCCCC3)ccc2c1 [Compound 2, (E)-2-(2-(2-(2-cyano-3-(6-(piperidin-1-yl)naphthalen-2-yl)acrylamido)ethoxy)ethoxy)ethyl (tert-butoxycarbonyl)glycinate]
detection of hyperphosphorylated three repeat tau in the retina (fluorescent signal) [8]: Hyperphosphorylated three repeat tau protein is detected in the retina, producing a detectable fluorescent signal
